The values below are quoted from earlier work in patent US6500450B1, “Composition for treating migraine headaches” (priority 1998, dated 2002).

Data set [1] relates to patients with recurrent migraines. To be noted: 49 patients.
Data set [2] has as its system moderate to severe migraine headaches.
The subject of a further data set is migraine. As to conditions: in vivo.
Data set [3] concerns migraine occurrence in patients.
Where [4] appears, read: 400 mg/day with breakfast for at least three months.

Structures can show the parent of a compound that is named as a salt.

Consider `Cc1cc2nc3c(=O)[nH]c(=O)nc-3n(C[C@H](O)[C@H](O)[C@H](O)CO)c2cc1C` [riboflavin], for which, in data set [1] (400 mg/day for at least three months), the side effects result is recorded as “One patient stopped treatment because of gastric intolerance, but no other side effects were reported”. For the same compound, in data set [1] (setting [4]), the “fall in the mean number of migraine attacks” value was 67% and the “improvement of migraine severity” value is on record as 68%.

For the compound `CNS(=O)(=O)Cc1ccc2[nH]cc(CCN(C)C)c2c1` [sumatriptan], the “reduction of the intensity of moderate to severe migraine headaches” value in data set [2] (dose of six milligrams, injectable) is recorded as 70%. For the same compound, the side effects result in data set [2] (stated for this type of drug) is “distal paresthesias, tingling, heaviness, and a sensation of pressure”.

As for `CN1C[C@H](C(=O)N[C@]2(C)O[C@@]3(O)[C@@H]4CCCN4C(=O)[C@H](Cc4ccccc4)N3C2=O)C=C2c3cccc4[nH]cc(c34)C[C@H]21` [ergotamine, ergotamine tartrate], the “patients with complete headache relief within three hours of taking the drug” value in the data set on patients with migraine (1-mg rectal suppository, patients with migraine) is on record as 73%. Besides, the “consequence of frequent use” value with patients with migraine (frequent use of the drug) is on record as “rebound headache”. Also, in the data set on patients with migraine (human, in vivo), the side effects result is “nausea, vomiting, abdominal pain, muscle cramps, and occasionally, distal paresthesias”.

On to `CC(C)NCC(O)COc1cccc2ccccc12` (stereo not drawn) [Propranolol], for which, in the data set on migraine, the “efficacy in migraine prophylaxis” value was “effective”; the side effects result was “fatigue, depression, impotence, insomnia, dizziness, and cold extremities”.

Take `CC[C@@H](CO)NC(=O)[C@@H]1C=C2c3cccc4c3c(cn4C)C[C@H]2N(C)C1` [methysergide, methysergide maleate]: the “patients in whom migraine occurrence is reduced by more than half” value in data set [3] (6 mg dose, migraine prophylaxis) is recorded as 60%. The “adverse effect of long-term use” value in data set [3] (long-term use) is “associated with retroperitoneal fibrosis”.
